In patent US7601736B2, “Pyridine derivatives, a process for their preparation and a pharmaceutical composition containing the same” (SK Chemicals Co., Ltd., priority 2003, dated 2009):

What was measured:
[1] = tested on: TNF-α; assay: Cytokine inhibitory activity in human whole blood (LPS), TNF-α ELISA; assay type: cell-based; conditions: LPS 1 μg/mL, read-out: TNF-α Inhibition rate (conc.); for inhibition at 0.1 µg/mL: test conc. 100 ng/mL
Procedure: (§1) 20 mL of venous whole blood collected respectively from 5 healthy volunteers of men or women, who had never been medicated with anti-inflammatory drugs within the last two weeks, and was added with heparin. 1 mL each of the above blood was respectively collected, and transferred into test tubes in which it was mixed with test material. The above mixture was precultured at 37° C. for about 1 hour. Then it was added with 1 μg/mL of LPS (lipopolysaccharide), allowed to react at the same temperature for about 4 to about 12 hours and then centrifuged at 4° C. at the rate of 3000 rpm for about 10 minutes. Thus produced plasma was respectively collected and its TNF-α in each plasma was quantitated using human TNF-α ELISA kit based on the amount of recombinant TNF-α in humans. The plate used was coated with anti-human TNF-α monoclone IgG antibodies. Likewise, for the test of IL-1α, IL-1α in each plasma was quantitated using the above plasma and human IL-1α ELISA kit based on the amount of recombinant IL-1α in humans. The plate used was coated with anti-human IL-1α monoclone IgG antibodies. Further, for the test of PGE2, PGE2 in each plasma was quantitated using the above plasma and PGE2 ELISA kit based on the amount of recombinant PGE2 in humans. The plate used was coated with anti-human PGE2 monoclone IgG antibodies. From the above tests, inhibitory rates on the expression of each cytokine were obtained and they were compared to that of Indomethacin.

[2] = tested on: IL-1α; assay: Cytokine inhibitory activity in human whole blood (LPS), IL-1α ELISA; assay type: cell-based; conditions: LPS 1 μg/mL, read-out: IL-1α Inhibition rate (conc.); for inhibition at 0.1 µg/mL: test conc. 100 ng/mL
Procedure: as §1

[3] = tested on: PGE2; assay: Cytokine inhibitory activity in human whole blood (LPS), PGE2 ELISA; assay type: cell-based; conditions: LPS 1 μg/mL, read-out: PGE2 Inhibition rate (conc.); for inhibition at 300 µg/mL: test conc. 300 μg/mL
Procedure: as §1

[4] = tested on: TNF-α; assay: Cytokine inhibitory activity in animal model (LPS-treated SD rats), plasma TNF-α; assay type: in vivo, Sprague Dawley (SD) rats; conditions: Rattus norvegicus, 2 h; SD rats, oral, LPS; 40 mg/kg; read-out: TNF-α Inhibition Rate (Conc.)
Procedure: (§2) Sprague Dawley (SD) rats with body weights of about 180 to about 200 g were fasted (free drinking) and then tested. Test compounds were administered orally at 40 mg/kg and then abdominally administered with LPS 1 μg/mL after 1 hour. After 2 hours, the rats were sacrificed and bloods were collected from abdominal vein, stored at room temperature for about 2 hours, and then centrifuged at 12,000 rpm for about 2 minutes. Thus produced plasma was respectively collected and its TNF-α in each plasma was quantitated using mouse TNF-α ELISA kit based on the amount of recombinant TNF-α in rats. The plate used was coated with anti-rat TNF-α monoclone IgG antibodies. Likewise, for the test of IL-1α, IL-1α in each plasma was quantitated using the above plasma and mouse IL-1α ELISA kit based on the amount of recombinant IL-1α in rats. The plate used was coated with anti-rat IL-1α monoclone IgG antibodies. Further, for the test of IL-6, IL-6 in each plasma was quantitated using the above plasma and mouse IL-6 ELISA kit based on the amount of recombinant IL-6 in rats. Further, for the test of INF-γ, INF-γ in each plasma was quantitated using the above plasma and mouse INF-γ ELISA kit based on the amount of recombinant INF-γ in rats. The plate used was coated with anti-rat INF-γ monoclone IgG antibodies. From the above tests, inhibitory rates on the expression of each cytokine were obtained and they were compared to that of Indomethacin.

[5] = tested on: IL-1α; assay: Cytokine inhibitory activity in animal model (LPS-treated SD rats), plasma IL-1α; assay type: in vivo, Sprague Dawley (SD) rats; conditions: oral
Procedure: as §2, with “Test compounds were administered orally at 40 mg/kg and then abdominally administered with LPS 1 μg/mL after 1 hour.” left out

[6] = tested on: IL-6; assay: Cytokine inhibitory activity in animal model (LPS-treated SD rats), plasma IL-6; assay type: in vivo, Sprague Dawley (SD) rats; conditions: oral
Procedure: as §2, with “Test compounds were administered orally at 40 mg/kg and then abdominally administered with LPS 1 μg/mL after 1 hour.” left out

[7] = tested on: INF-γ; assay: Cytokine inhibitory activity in animal model (LPS-treated SD rats), plasma INF-γ; assay type: in vivo, Sprague Dawley (SD) rats; conditions: oral
Procedure: as §2, with “Test compounds were administered orally at 40 mg/kg and then abdominally administered with LPS 1 μg/mL after 1 hour.” left out

[8] = tested on: TNF-α; assay: Cytokine inhibitory activity in cells: LPS-induced TNF-α in RAW 264.7; assay type: cell-based, murine; conditions: Mus musculus, RAW264.7, RAW 264.7, LPS 1 μg/mL, read-out: TNF-α Inhibition Rate (%); for inhibition at 1 µM: test conc. 1 μM; for inhibition at 10 µM: test conc. 10 μM; for inhibition at 100 µM: test conc. 100 μM; for inhibition at 1000 µM: test conc. 1 mM
Procedure: General reagents used were purchased from Sigma-Aldrich chem. Co. and cytokine inhibitory activities were tested as follows. Mediums and reagents used in cell culture were purchased from GIBCO BRL (USA), and mouse TNF-α ELISA kit was purchased from R&D system (USA). The apparatus used ELISA reader (Spectra max-Plus 384, Molecular Device, USA).
Murine macrophage cell line RAW 264.7 was kindly provided by Korean Tissue Culture Center (KTCC). The cell line was cultured in DMEM medium containing 10% FBS, in a cell culturing device at the condition of 37° C., 5% CO2. First, murine RAW 264.7 was cultured in DMEM medium containing 10% FBS for about 24 hours, and cells were planted 200 μL each in 96 well plates at the concentration of 5×10^5/mL and cultured for about 24 hours. Then, test compounds were treated at various concentrations and then reacted at 37° C. for about 1 hour, wherein 1 μg/mL of lipopolysaccharide (LPS) was added thereto and reacted at 37° C. for about 12 hours. The supernatant was recovered and the amount of murine TNF-α on the medium was quantitated using ELISA kit. Thalidomide was respectively used as a positive and a negative control to compare the activities and the results are shown in the following tables 4a -4c.

[9] = tested on: ICR (Institute of Cancer Research) mouse; assay: Croton oil-induced ear edema test; assay type: in vivo; conditions: oral
Procedure: Male ICR (Institute of Cancer Research) mouse with body weight of about 20 to 30 g were tested wherein each group had 6 mouses. After 1 hour of the oral administration of a test compound, Croton oil (in acetone solution) was coated on one of the ears. After 4 hours, the thickness of the swollen ear in treated group was compared with the other unswollen ear and obtained the average increase rate in thickness of ear by the treatment.

[10] = tested on: ICR (Institute of Cancer Research) mouse; assay: Arachidonic acid-induced ear edema test; assay type: in vivo; conditions: oral
Procedure: Male ICR (Institute of Cancer Research) mouse with body weight of about 20 to 30 g were tested wherein each group had 6 mouses. After 1 hour of the oral administration of a test compound, Arachidonic acid (in acetone solution) was coated on one of the ears. After 1 hour, the thickness of the swollen ear in treated group was compared with the other unswollen ear and obtained the average increase rate in thickness of ear by the treatment.

[11] = tested on: ICR (Institute of Cancer Research) mouse; assay: Analgesic test (acetic acid-induced stretchings); assay type: in vivo; conditions: oral
Procedure: Male ICR (Institute of Cancer Research) mouse with body weight of about 20 to 30 g were tested wherein each group had 6 mouses. After 1 hour of the oral administration of a test compound, acetic acid (in distilled water) was abdominally administered. For the duration of 10 minutes, the animals were observed regarding the number of stretchings and the number was compared with that of placebo treated group and the result is shown in the following table 7.

[12] = tested on: TNF-α; assay: Cytokine inhibitory activity in animal model (LPS-treated SD rats), plasma TNF-α; assay type: in vivo, Sprague Dawley (SD) rats; conditions: Rattus norvegicus, 2 h, oral, read-out: TNF-α Inhibition Rate (Conc.)

Row | SMILES | inhibition at 0.1 µg/mL [1] [%] | inhibition at 0.1 µg/mL [2] [%] | inhibition at 300 µg/mL [3] [%] | inhibition in vivo at 40 mg/kg [4] [%] | IL-α Inhibition rate (conc.) ([5]; 40 mg/kg) | IL-6 Inhibition rate (conc.) ([6]; 40 mg/kg) | INF-γ Inhibition rate (conc.) ([7]; 40 mg/kg) | inhibition at 1 µM [8] [%] | inhibition at 10 µM [8] [%] | inhibition at 100 µM [8] [%] | inhibition at 1000 µM [8] [%] | Inhibition Rate (%) ([9]; 2 mg/kg) | Inhibition Rate (%) ([9]; 10 mg/kg) | Inhibition Rate (%) ([9]; 50 mg/kg) | Inhibition Rate (%) ([10]; 2 mg/kg) | Inhibition Rate (%) ([10]; 10 mg/kg) | Inhibition Rate (%) ([10]; 50 mg/kg) | Inhibition Rate (%) ([11]; 10 mg/kg) | Inhibition Rate (%) ([11]; 50 mg/kg) | also measured
1 | O=C1OCCc2ccncc21 [Ex. 3, 3,4-dihydro-pyrano[3,4-c]pyridine-1-on] | 90 | 95 | 24 | 75 | 65% (40 mg/kg) | 71% (40 mg/kg) | 48% (40 mg/kg) | 34 | 35 | 43 | 44 | 33 | 56 | 57 | 33 | 51 | 46 | 76 | 92 | 
2 | Cc1cc2c(cn1)C(=O)OCC2 [Ex. 6, 6-methyl-3,4-dihydro-pyrano[3,4-c]pyridine-1-on] | 84 | 90 | 23 | 39 | 52% (40 mg/kg) | 78% (40 mg/kg) | 51% (40 mg/kg) | 30 | 35 | 36 | 38 | 17 | 39 | 69 | 21 | 36 | 41 | 76 | 75 | 
3 | C=Cc1cncc2c1CCOC2=O [Ex. 9, 5-vinyl-3,4-dihydro-pyrano[3,4-c]pyridine-1-on] | 82 | 93 | 38 | 59 | 62% (40 mg/kg) | 43% (40 mg/kg) | 45% (40 mg/kg) | 37 | 38 | 39 | 41 | 25 | 44 | 37 | 21 | 29 | 39 | 73 | 76 | 
4 | COc1ccc2c(c1)c(CC(=O)O)c(C)n2C(=O)c1ccc(Cl)cc1 [Indomethacin, reference compound] |  |  |  |  |  |  |  |  |  |  |  |  |  |  |  |  |  |  |  | inhibition at 200 µg/mL ([1]; test conc. 200 μg/mL): 37%; inhibition at 200 µg/mL ([2]; test conc. 200 μg/mL): 25%; inhibition at 200 µg/mL ([3]; test conc. 200 μg/mL): 37%; IL-α Inhibition rate (conc.) ([5]; 200 mg/kg): 24% (200 mg/kg); IL-6 Inhibition rate (conc.) ([6]; 200 mg/kg): 60% (200 mg/kg); INF-γ Inhibition rate (conc.) ([7]; 200 mg/kg): 13% (200 mg/kg); inhibition in vivo at 200 mg/kg [12]: 46%
